Experimental data from patent US7842808B2, “Anti-migraine spirocycles” (Bristol-Myers Squibb Company, priority 2002, dated 2010).
pIC50: −log10 of the molar value. Like-named read-outs stand apart in the source and are kept apart here.

Molecular target: T1, CGRP receptor (SK-N-MC cell membranes) (Homo sapiens, UniProt O60894+Q16602)
T1 construct: endogenous in cells; host or cells: SK-N-MC cells (membrane homogenate)
Test: CGRP Binding Assay ([125I]-CGRP radioligand binding, SK-N-MC homogenate)

[1] = displacement of [125I]-CGRP, SK-N-MC homogenate, read-out: CGRP binding IC50

T1 sequence (Q16602 23-461): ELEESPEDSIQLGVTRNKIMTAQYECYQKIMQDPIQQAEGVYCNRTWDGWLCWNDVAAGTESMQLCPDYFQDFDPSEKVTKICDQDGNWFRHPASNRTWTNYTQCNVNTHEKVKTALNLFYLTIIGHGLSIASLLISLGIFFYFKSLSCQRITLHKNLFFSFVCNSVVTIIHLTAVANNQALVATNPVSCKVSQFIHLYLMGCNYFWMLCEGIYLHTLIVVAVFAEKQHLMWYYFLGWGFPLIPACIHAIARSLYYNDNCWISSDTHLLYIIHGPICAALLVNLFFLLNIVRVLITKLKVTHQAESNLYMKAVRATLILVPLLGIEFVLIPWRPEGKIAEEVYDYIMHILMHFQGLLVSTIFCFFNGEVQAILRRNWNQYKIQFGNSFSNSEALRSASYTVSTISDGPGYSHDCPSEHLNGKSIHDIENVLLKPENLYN
T1 sequence (O60894 27-148): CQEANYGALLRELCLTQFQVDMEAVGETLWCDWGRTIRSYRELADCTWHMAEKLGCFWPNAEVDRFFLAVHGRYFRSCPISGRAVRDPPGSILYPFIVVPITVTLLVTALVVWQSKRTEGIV

SMILES | pIC50 [1] | pIC50
O=C(Nc1ccc(F)c(F)c1F)N[C@@H](CC(=O)N1CCC(N2Cc3ccccc3NC2=O)CC1)C(=O)N1CCC(N2CCCCC2)CC1 [Example 168] | 6.00 to 7.00 | 
O=C(N[C@@H](CC(=O)N1CCC(N2Cc3ccccc3NC2=O)CC1)C(=O)N1CCC(N2CCCCC2)CC1)C1CC1 [Example 103] | 6.00 to 7.00 | 
Cc1cc(CC(NC(=O)N2CCC(N3Cc4ccccc4NC3=O)CC2)C(=O)O[C@@H](C)c2ccncc2)cc2cn[nH]c12 (stereo partly drawn) [Example 41f, 3-(7-Methyl-1H-indazol-5-yl)-2-{[4-(2-oxo-1,4-dihydro-2H-quinazolin-3-yl)-piperidine-1-carbonyl]-amino}-propionic acid(S)-1-pyridin-4-yl-ethyl ester] | 7.00 to 8.00 | 
O=C(Nc1ccc(Cl)cc1C(F)(F)F)N[C@@H](CC(=O)N1CCC(N2Cc3ccccc3NC2=O)CC1)C(=O)N1CCC(N2CCCCC2)CC1 [Example 188] | 6.00 to 7.00 | 
O=C(N[C@@H](CC(=O)N1CCC(N2Cc3ccccc3NC2=O)CC1)C(=O)N1CCC(N2CCCCC2)CC1)c1cccc(Cl)c1Cl [Example 123] | 7.00 to 8.00 | 
COc1ccc(CC(=O)N[C@@H](CC(=O)N2CCC(N3Cc4ccccc4NC3=O)CC2)C(=O)N2CCC(N3CCCCC3)CC2)cc1OC [Example 109] | 6.00 to 7.00 | 
COc1cccc(NC(=O)N[C@@H](CC(=O)N2CCC(N3Cc4ccccc4NC3=O)CC2)C(=O)N2CCC(N3CCCCC3)CC2)c1 [Example 150] | 7.00 to 8.00 | 
O=C1Nc2ccccc2C2(CCN(C(=O)CC(Cc3ccc4[nH]ncc4c3)C(=O)N3CCC4(CC3)OCCO4)CC2)O1 (racemic) [Example 80, (±)-1-(1,4-Dioxa-8-aza-spiro[4.5]dec-8-yl)-2-(1H-indazol-5-ylmethyl)-4-[1′,2′-dihydro-2′-oxospiro-[4H-3′,1-benzoxazine-4,4′-piperidinyl]-butane-1,4-dione] |  | 6.00 to 7.00
O=C(N[C@@H](CC(=O)N1CCC(N2Cc3ccccc3NC2=O)CC1)C(=O)N1CCC(N2CCCCC2)CC1)c1cccs1 [Example 116] | 6.00 to 7.00 | 
O=C(C[C@H](NCc1ccccn1)C(=O)N1CCC(N2CCCCC2)CC1)N1CCC(N2Cc3ccccc3NC2=O)CC1 [Example 93, (L)-1-[1,4′]Bipiperidinyl-1′-yl-2-((2′-pyridyl)-methyl-amino)-4-[4-(2-oxo-1,4-dihydro-2H-quinazolin-3-yl)-piperidin-1-yl]-butane-1,4-dione] | 6.00 to 7.00 | 
COc1ncc(CC(NC(=O)N2CCC(N3Cc4ccccc4NC3=O)CC2)C(=O)N2CCC(N3CCCCC3)CC2)cn1 (racemic) [Example 58, (±)-4-(2-Oxo-1,4-dihydro-2H-quinazolin-3-yl)-piperidine-1-carboxylic acid[2-[1,4′]bipiperidinyl-1′-yl-1-(2-methoxy-pyrimidin-5-ylmethyl)-2-oxo-ethyl]-amide] | < 6.00 | 
COc1ccc(OC)c(NC(=O)N[C@@H](CC(=O)N2CCC(N3Cc4ccccc4NC3=O)CC2)C(=O)N2CCC(N3CCCCC3)CC2)c1 [Example 174] | 6.00 to 7.00 | 
O=C(Nc1ccccc1F)N[C@@H](CC(=O)N1CCC(N2Cc3ccccc3NC2=O)CC1)C(=O)N1CCC(N2CCCCC2)CC1 [Example 171] | 7.00 to 8.00 | 
O=C(Nc1ccc(Cl)c(C(F)(F)F)c1)N[C@@H](CC(=O)N1CCC(N2Cc3ccccc3NC2=O)CC1)C(=O)N1CCC(N2CCCCC2)CC1 [Example 152] | 6.00 to 7.00 | 
Cc1cc(CC(NC(=O)N2CCC(N3Cc4ccccc4NC3=O)CC2)C(=O)OC2CCN(C)CC2)cc2cn[nH]c12 (centres unmarked) [Example 41c, 3-(7-Methyl-1H-indazol-5-yl)-2-{[4-(2-oxo-1,4-dihydro-2H-quinazolin-3-yl)-piperidine-1-carbonyl]-amino}-propionic acid 1-methyl-piperidin-4-yl ester] | > 8.00 | 
CC(NC(=O)N[C@@H](CC(=O)N1CCC(N2Cc3ccccc3NC2=O)CC1)C(=O)N1CCC(N2CCCCC2)CC1)c1cccc2ccccc12 (some centres unmarked) [Example 199] | 7.00 to 8.00 | 
CC(=O)N[C@@H](CC(=O)N1CCC(N2Cc3ccccc3NC2=O)CC1)C(=O)N1CCC(N2CCCCC2)CC1 [Example 120] | 6.00 to 7.00 | 
O=C(N[C@@H](CC(=O)N1CCC(N2Cc3ccccc3NC2=O)CC1)C(=O)N1CCC(N2CCCCC2)CC1)c1ccc(O)cc1 [Example 100, (L)-N-{1-([1,4′]Bipiperidinyl-1′-carbonyl)-3-oxo-3-[4-(2-oxo-1,4-dihydro-2H-quinazolin-3-yl)-piperidin-1-yl]-propyl}-4-hydroxy-benzamide] | 6.00 to 7.00 | 
O=C(Cc1ccccc1)N[C@@H](CC(=O)N1CCC(N2Cc3ccccc3NC2=O)CC1)C(=O)N1CCC(N2CCCCC2)CC1 [Example 106] | 6.00 to 7.00 | 
O=C(N[C@@H](CC(=O)N1CCC(N2Cc3ccccc3NC2=O)CC1)C(=O)N1CCC(N2CCCCC2)CC1)c1ccc2c(c1)OCO2 [Example 114] | 6.00 to 7.00 | 
O=C(Nc1ccc(Br)cc1)N[C@@H](CC(=O)N1CCC(N2Cc3ccccc3NC2=O)CC1)C(=O)N1CCC(N2CCCCC2)CC1 [Example 179] | 6.00 to 7.00 | 
Cc1cc(CC(NC(=O)N2CCC3(CC2)CC(=O)Nc2ccccc23)C(=O)N(C)C)cc2cn[nH]c12 (racemic) [Example 33, (±)-[1-Dimethylcarbmoyl-2-(7-methyl-1H-indazol-5-yl)-ethy]1-3′,4′-dihydro-2′-oxospiro-[piperidine-4,4′-(1H)-quinoline]-1-carboxamide] | 6.00 to 7.00 | 
O=C(N[C@@H](CC(=O)N1CCC(N2Cc3ccccc3NC2=O)CC1)C(=O)N1CCC(N2CCCCC2)CC1)c1cc(C(F)(F)F)cc(C(F)(F)F)c1 [Example 107] | 6.00 to 7.00 | 
CCC(CN1CCN(C(=O)C(Cc2ccc3[nH]ncc3c2)NC(=O)N2CCC(N3Cc4ccccc4NC3=O)CC2)CC1)C(C)C (centres unmarked) [Example 40i] | 7.00 to 8.00 | 
O=C(Nc1cc(Cl)ccc1Cl)N[C@@H](CC(=O)N1CCC(N2Cc3ccccc3NC2=O)CC1)C(=O)N1CCC(N2CCCCC2)CC1 [Example 173] | 6.00 to 7.00 | 
O=C(Nc1ccc(F)cc1F)N[C@@H](CC(=O)N1CCC(N2Cc3ccccc3NC2=O)CC1)C(=O)N1CCC(N2CCCCC2)CC1 [Example 156] | 6.00 to 7.00 | 
O=C(NC(Cc1ccc2[nH]ncc2c1)C(=O)N1CCN(C/C=C/c2ccccc2)CC1)N1CCC(N2Cc3ccccc3NC2=O)CC1 (centres unmarked) [Example 40j] | < 6.00 | 
O=C(N[C@@H](CC(=O)N1CCC(N2Cc3ccccc3NC2=O)CC1)C(=O)N1CCC(N2CCCCC2)CC1)c1cccc([N+](=O)[O-])c1 [Example 113] | 6.00 to 7.00 | 
CCCNC(=O)N[C@@H](CC(=O)N1CCC(N2Cc3ccccc3NC2=O)CC1)C(=O)N1CCC(N2CCCCC2)CC1 [Example 183] | 6.00 to 7.00 | 
